Laboratory results published in patent publication US4200575A, “7[(2-Thiazolyl)-2-(oxoimino)acetamido]cephalosporin derivatives” (Takeda Chemical Industries, Ltd., priority 1977, dated 1980).

Key:
[1] = system: C. freundii GN 99; assay: Minimal inhibitory concentration (M.I.C.), agar dilution method; type: cell-based, Citrobacter freundii; settings: TSA, inoculum 10^7 /ml
Source text: (§1) (a) Determination of minimal inhibitory concentrations (Tables 1 to 8):
(§2) Procedure: agar dilution method

[2] = system: C. freundii GN 1706; assay: as above; type: cell-based, Citrobacter freundii; settings: TSA, inoculum 10^7 /ml
Source text: as §1, §2

[3] = system: K. pneumoniae DT; assay: as above; type: cell-based, Klebsiella pneumoniae; settings: TSA, inoculum 10^7 /ml
Source text: as §1, §2

[4] = system: K. pneumoniae GN 3835; assay: as above; type: cell-based, Klebsiella pneumoniae; settings: TSA, inoculum 10^7 /ml
Source text: as §1, §2

[5] = system: P. vulgaris IFO 3988; assay: as above; type: cell-based, Proteus vulgaris; settings: TSA, inoculum 10^7 /ml
Source text: as §1, §2

[6] = system: P. vulgaris GN 4413; assay: as above; type: cell-based, Proteus vulgaris; settings: TSA, inoculum 10^7 /ml
Source text: as §1, §2

[7] = system: E. cloacae TN 1282; assay: as above; type: cell-based, Enterobacter cloacae; settings: TSA, inoculum 10^7 /ml
Source text: as §1, §2

[8] = system: E. coli T-7; assay: as above; type: cell-based, Escherichia coli; settings: TSA, inoculum 10^7 /ml
Source text: as §1, §2

[9] = system: E. coli NIHJ JC-2; assay: as above; type: cell-based, Escherichia coli; settings: TSA, inoculum 10^7 /ml
Source text: as §1, §2

[10] = system: S. aureus 209P; assay: as above; type: cell-based, Staphylococcus aureus; settings: TSA, inoculum 10^7 /ml
Source text: as §1, §2

[11] = system: S. aureus 1840; assay: as above; type: cell-based, Staphylococcus aureus; settings: TSA, inoculum 10^7 /ml
Source text: as §1, §2

[12] = system: P. morganii IFO 3168; assay: as above; type: cell-based, Proteus morganii; settings: TSA, inoculum 10^7 /ml
Source text: as §1, §2

[13] = system: S. marcescens TN 24; assay: as above; type: cell-based, Serratia marcescens; settings: TSA, inoculum 10^7 /ml
Source text: as §1, §2

[14] = system: S. marcescens IFO 12648; assay: as above; type: cell-based, Serratia marcescens; settings: TSA, inoculum 10^7 /ml
Source text: as §1, §2

[15] = system: E. coli 0-111; assay: as above; type: cell-based, Escherichia coli; settings: TSA, inoculum 10^7 /ml
Outline: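 MIC against E. coli O-111 was determined by agar dilution.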

[16] = system: Escherichia coli 0-111; assay: Therapeutic effects in infected mice; type: in vivo, Male mice ICR/SLC; settings: Escherichia coli, 0111, sc, 168 h
Procedure: The preliminary therapeutic effects of some cephalosporin derivatives of this invention as determined in infected mice were as follows.
Determination of therapeutic effects in infected mice
Test animals: Male mice ICR/SLC
Each compound was administered to a group of 5 animals.
Route of infection: Intraperitoneally infected with Escherichia coli 0-111
Period of observation: 7 days.
Method of administration:
One mg of each test compound was dissolved in 100 ml of sterile physiological saline and a dilution series of the same solution was prepared. These solutions were respectively injected subcutaneously into mice immediately after infection, in a single dose of 0.2 ml each.

[17] = system: P. mirabilis GN 4359; assay: Minimal inhibitory concentration (M.I.C.), agar dilution method; type: cell-based, Proteus mirabilis; settings: TSA, inoculum 10^7 /ml
Source text: as §1, §2

[18] = system: P. rettgeri TN 338; assay: as above; type: cell-based, Proteus rettgeri; settings: TSA, inoculum 10^7 /ml
Source text: as §1, §2

[19] = system: P. rettgeri GN4733; assay: as above; type: cell-based, Proteus rettgeri; settings: TSA, inoculum 10^7 /ml
Source text: as §1, §2

## CNC(=O)O/N=C(\C(=O)NC1C(=O)N2C(C(=O)O)=C(CSc3nnnn3C)CSC12)c1csc(=N)[nH]1 (stereo not drawn) [Example II - 4, sodium 7-[2-(2-imino-4-thiazolin-4-yl)-2-methylcarbamoyloximinoacetamido]-3-(1-methyl-1H-tetrazol-5-yl)thiomethyl-3-cephem-4-carboxylate (syn-isomer)]
[1]
  minimal inhibitory concentration (M.I.C.): 0.1
[2]
  minimal inhibitory concentration (M.I.C.): 0.39
[3]
  minimal inhibitory concentration (M.I.C.): 0.05
[4]
  minimal inhibitory concentration (M.I.C.): 0.39
[5]
  minimal inhibitory concentration (M.I.C.): 0.1
[6]
  minimal inhibitory concentration (M.I.C.): 12.5
[7]
  minimal inhibitory concentration (M.I.C.): 1.56
[8]
  minimal inhibitory concentration (M.I.C.): 1.56
[9]
  minimal inhibitory concentration (M.I.C.): 0.2
[10]
  minimal inhibitory concentration (M.I.C.): 1.56
[11]
  minimal inhibitory concentration (M.I.C.): 1.56
[12]
  minimal inhibitory concentration (M.I.C.): 0.1
[13]
  minimal inhibitory concentration (M.I.C.): 0.78
[14]
  minimal inhibitory concentration (M.I.C.): 1.56
[15]
  minimal inhibitory concentration (M.I.C.): 0.024
[16]
  ED50: 0.025 mg/kg
[17]
  minimal inhibitory concentration (M.I.C.): 0.1
[18]
  minimal inhibitory concentration (M.I.C.): ≤ 0.012
[19]
  minimal inhibitory concentration (M.I.C.): 0.1

## CNC(=O)O/N=C(\C(=O)NC1C(=O)N2C(C(=O)O)=C(CSc3nc(C)ns3)CSC12)c1csc(=N)[nH]1 (stereo not shown) [Example IV - 8]
[1]
  minimal inhibitory concentration (M.I.C.): 0.78
[2]
  minimal inhibitory concentration (M.I.C.): 3.13
[3]
  minimal inhibitory concentration (M.I.C.): 0.39
[4]
  minimal inhibitory concentration (M.I.C.): 3.13
[5]
  minimal inhibitory concentration (M.I.C.): 0.39
[6]
  minimal inhibitory concentration (M.I.C.): 6.25
[7]
  minimal inhibitory concentration (M.I.C.): 6.25
[8]
  minimal inhibitory concentration (M.I.C.): 6.25
[9]
  minimal inhibitory concentration (M.I.C.): 1.56
[10]
  minimal inhibitory concentration (M.I.C.): 0.78
[11]
  minimal inhibitory concentration (M.I.C.): 1.56
[12]
  minimal inhibitory concentration (M.I.C.): 3.13
[13]
  minimal inhibitory concentration (M.I.C.): 6.25
[14]
  minimal inhibitory concentration (M.I.C.): 6.25
[15]
  minimal inhibitory concentration (M.I.C.): 0.39
[17]
  minimal inhibitory concentration (M.I.C.): 0.78
[18]
  minimal inhibitory concentration (M.I.C.): ≤ 0.2
[19]
  minimal inhibitory concentration (M.I.C.): 0.78

## CNC(=O)O/N=C(\C(=O)NC1C(=O)N2C(C(=O)O)=C(COC(C)=O)CSC12)c1csc(=N)[nH]1 (stereo not drawn) [Example II - 1, sodium 7-[2-(2-imino-4-thiazolin-4-yl)-2-methylcarbamoyloximinoacetamido]-3-acetoxymethyl-3-cephem-4-carboxylate (syn-isomer)]
[1]
  minimal inhibitory concentration (M.I.C.): 0.1
[2]
  minimal inhibitory concentration (M.I.C.): 0.39
[3]
  minimal inhibitory concentration (M.I.C.): 0.05
[4]
  minimal inhibitory concentration (M.I.C.): 0.1
[5]
  minimal inhibitory concentration (M.I.C.): 0.05
[6]
  minimal inhibitory concentration (M.I.C.): 12.5
[7]
  minimal inhibitory concentration (M.I.C.): 1.56
[8]
  minimal inhibitory concentration (M.I.C.): 0.39
[9]
  minimal inhibitory concentration (M.I.C.): 0.1
[10]
  minimal inhibitory concentration (M.I.C.): 1.56
[11]
  minimal inhibitory concentration (M.I.C.): 3.13
[12]
  minimal inhibitory concentration (M.I.C.): 0.39
[13]
  minimal inhibitory concentration (M.I.C.): 6.25
[14]
  minimal inhibitory concentration (M.I.C.): 3.13
[15]
  minimal inhibitory concentration (M.I.C.): ≤ 0.012
[17]
  minimal inhibitory concentration (M.I.C.): 0.1
[18]
  minimal inhibitory concentration (M.I.C.): ≤ 0.012
[19]
  minimal inhibitory concentration (M.I.C.): 0.05

## CNC(=O)O/N=C(\C(=O)NC1C(=O)N2C(C(=O)O)=C(CSc3nnc(CC(N)=O)s3)CSC12)c1csc(=N)[nH]1 (stereo not shown) [Example IV - 6]
[1]
  minimal inhibitory concentration (M.I.C.): ≤ 0.2
[2]
  minimal inhibitory concentration (M.I.C.): ≤ 0.78
[3]
  minimal inhibitory concentration (M.I.C.): ≤ 0.2
[4]
  minimal inhibitory concentration (M.I.C.): 0.39
[5]
  minimal inhibitory concentration (M.I.C.): ≤ 0.2
[6]
  minimal inhibitory concentration (M.I.C.): 25
[7]
  minimal inhibitory concentration (M.I.C.): 3.13
[8]
  minimal inhibitory concentration (M.I.C.): 3.13
[9]
  minimal inhibitory concentration (M.I.C.): ≤ 0.2
[10]
  minimal inhibitory concentration (M.I.C.): 1.56
[11]
  minimal inhibitory concentration (M.I.C.): 3.13
[12]
  minimal inhibitory concentration (M.I.C.): ≤ 0.2
[13]
  minimal inhibitory concentration (M.I.C.): 3.15
[14]
  minimal inhibitory concentration (M.I.C.): 3.13
[15]
  minimal inhibitory concentration (M.I.C.): ≤ 0.2
[17]
  minimal inhibitory concentration (M.I.C.): 0.39
[18]
  minimal inhibitory concentration (M.I.C.): ≤ 0.2
[19]
  minimal inhibitory concentration (M.I.C.): 0.39

## CCCCNC(=O)O/N=C(\C(=O)NC1C(=O)N2C(C(=O)O)=C(C)CSC12)c1csc(=N)[nH]1 (stereo not shown) [Example II - 23]
[1]
  minimal inhibitory concentration (M.I.C.): 12.5
[2]
  minimal inhibitory concentration (M.I.C.): 25
[3]
  minimal inhibitory concentration (M.I.C.): 3.13
[4]
  minimal inhibitory concentration (M.I.C.): 6.25
[5]
  minimal inhibitory concentration (M.I.C.): 12.5
[6]
  minimal inhibitory concentration (M.I.C.): 50
[7]
  minimal inhibitory concentration (M.I.C.): 100
[8]
  minimal inhibitory concentration (M.I.C.): 25
[9]
  minimal inhibitory concentration (M.I.C.): 12.5
[10]
  minimal inhibitory concentration (M.I.C.): 12.5
[11]
  minimal inhibitory concentration (M.I.C.): 12.5
[12]
  minimal inhibitory concentration (M.I.C.): 100
[13]
  minimal inhibitory concentration (M.I.C.): > 100
[14]
  minimal inhibitory concentration (M.I.C.): 100
[15]
  minimal inhibitory concentration (M.I.C.): 6.25
[17]
  minimal inhibitory concentration (M.I.C.): 3.13
[18]
  minimal inhibitory concentration (M.I.C.): 0.1
[19]
  minimal inhibitory concentration (M.I.C.): 0.39

## CC(C)NC(=O)O/N=C(\C(=O)NC1C(=O)N2C(C(=O)O)=C(COC(N)=O)CSC12)c1csc(=N)[nH]1 (stereo not shown) [Example II - 17]
[1]
  minimal inhibitory concentration (M.I.C.): 0.39
[2]
  minimal inhibitory concentration (M.I.C.): 0.78
[3]
  minimal inhibitory concentration (M.I.C.): 0.1
[4]
  minimal inhibitory concentration (M.I.C.): 0.39
[5]
  minimal inhibitory concentration (M.I.C.): 0.39
[6]
  minimal inhibitory concentration (M.I.C.): 100
[7]
  minimal inhibitory concentration (M.I.C.): 6.25
[8]
  minimal inhibitory concentration (M.I.C.): 3.13
[9]
  minimal inhibitory concentration (M.I.C.): 0.39
[10]
  minimal inhibitory concentration (M.I.C.): 1.56
[11]
  minimal inhibitory concentration (M.I.C.): 3.13
[12]
  minimal inhibitory concentration (M.I.C.): 1.56
[13]
  minimal inhibitory concentration (M.I.C.): 25
[14]
  minimal inhibitory concentration (M.I.C.): 6.25
[15]
  minimal inhibitory concentration (M.I.C.): 0.05
[17]
  minimal inhibitory concentration (M.I.C.): 0.1
[18]
  minimal inhibitory concentration (M.I.C.): ≤ 0.012
[19]
  minimal inhibitory concentration (M.I.C.): 0.1

## CC(=O)OCC1=C(C(=O)O)N2C(=O)C(NC(=O)/C(=N\OC(=O)NC3CCCCC3)c3csc(=N)[nH]3)C2SC1 (stereo not shown) [Example II - 24]
[1]
  minimal inhibitory concentration (M.I.C.): 0.39
[2]
  minimal inhibitory concentration (M.I.C.): 0.78
[3]
  minimal inhibitory concentration (M.I.C.): 0.05
[4]
  minimal inhibitory concentration (M.I.C.): 0.39
[5]
  minimal inhibitory concentration (M.I.C.): 0.1
[6]
  minimal inhibitory concentration (M.I.C.): 25
[7]
  minimal inhibitory concentration (M.I.C.): 3.13
[8]
  minimal inhibitory concentration (M.I.C.): 1.56
[9]
  minimal inhibitory concentration (M.I.C.): 0.1
[10]
  minimal inhibitory concentration (M.I.C.): 0.78
[11]
  minimal inhibitory concentration (M.I.C.): 1.56
[12]
  minimal inhibitory concentration (M.I.C.): 0.39
[13]
  minimal inhibitory concentration (M.I.C.): 12.5
[14]
  minimal inhibitory concentration (M.I.C.): 6.25
[15]
  minimal inhibitory concentration (M.I.C.): 0.024
[17]
  minimal inhibitory concentration (M.I.C.): 0.1
[18]
  minimal inhibitory concentration (M.I.C.): ≤ 0.012
[19]
  minimal inhibitory concentration (M.I.C.): 0.05

## CC(C)NC(=O)O/N=C(\C(=O)NC1C(=O)N2C(C(=O)O)=C(CSc3nnnn3C)CSC12)c1csc(=N)[nH]1 (stereo not shown) [Example II - 18]
[1]
  minimal inhibitory concentration (M.I.C.): 0.39
[2]
  minimal inhibitory concentration (M.I.C.): 0.78
[3]
  minimal inhibitory concentration (M.I.C.): 0.1
[4]
  minimal inhibitory concentration (M.I.C.): 1.56
[5]
  minimal inhibitory concentration (M.I.C.): 0.1
[6]
  minimal inhibitory concentration (M.I.C.): 25
[7]
  minimal inhibitory concentration (M.I.C.): 3.13
[8]
  minimal inhibitory concentration (M.I.C.): 3.13
[9]
  minimal inhibitory concentration (M.I.C.): 0.2
[10]
  minimal inhibitory concentration (M.I.C.): 1.56
[11]
  minimal inhibitory concentration (M.I.C.): 3.13
[12]
  minimal inhibitory concentration (M.I.C.): 0.78
[13]
  minimal inhibitory concentration (M.I.C.): 3.13
[14]
  minimal inhibitory concentration (M.I.C.): 3.13
[15]
  minimal inhibitory concentration (M.I.C.): 0.024
[17]
  minimal inhibitory concentration (M.I.C.): 0.39
[18]
  minimal inhibitory concentration (M.I.C.): ≤ 0.012
[19]
  minimal inhibitory concentration (M.I.C.): 0.2
